Key:
Assay type in all cases: cell-based
TM4SF5 binding to c-Src = target: T1, TM4SF5 binding to c-Src (Homo sapiens, UniProt O14894); test: TM4SF5 binding to c-Src after TSAHC treatment; conditions: treatment of TSAHC, stated in the discussion
T1 construct: TM4SF5WT (NM-003963, 197 amino acids); expressed in transfected cells
T1 sequence (O14894 1-197): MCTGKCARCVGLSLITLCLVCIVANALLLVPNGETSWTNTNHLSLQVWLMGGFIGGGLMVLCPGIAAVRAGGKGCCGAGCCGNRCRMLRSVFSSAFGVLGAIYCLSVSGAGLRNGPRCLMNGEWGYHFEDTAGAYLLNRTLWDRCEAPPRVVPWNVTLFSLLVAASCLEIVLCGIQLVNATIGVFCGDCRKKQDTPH
Description: (A and B) SNU449 cells transiently transfected with the c-Src SH321 construct together with the indicated constructs were harvested (A). SNU761 cells stably expressing mock or FLAG-TM4SF5 were transiently transfected with the indicated constructs were harvested (B). The whole cell lysates (WCL) were precipitated with streptavidin beads, prior to immunoblotting. (C) SNU761 cells stably expressing mock or FLAG-TM4SF5WT (WT) were transiently transfected with the indicated construct and siRNAs against a scrambled sequence (siCont) or a sequence in PTP1B (siPTP1B). Immunoprecipitation from the WCL using anti-Flag-precoated sepharose beads was performed, before immunoblots. (D) SNU449 cells transfected with the indicated plasmids were processed for precipitation using streptavidin beads, prior to immunoblotting. (E) Stable SNU449 cells were treated with DMSO (-) or TSAHC (20 μM, +) for 24 h, before harvest, precipitation using streptavidin beads, and immunoblotting. Another cell set with TM4SF5-Flag and treated with DMSO or TSAHC as above was processed for immunofluorescence analysis. (F) SNU761 cells stably expressing TM4SF5WT were transiently transfected with the indicated siRNAs for 48 h, prior to transwell migration assay. […] Quantitative comparison ratios were calculated from the blots by measurement of band intensities using Image J and normalization of them to those of loading controls. […]

PTP1B binding to TM4SF5 = target: T2, PTP1B binding to TM4SF5 (Homo sapiens, UniProt O14894); test: Streptavidin pull-down of STrEP-TM4SF5 and immunoblot for PTP1B after TSAHC; conditions: stable SNU449 cells, TSAHC 20 μM for 24 h, immunoblot, Figure 3E
T2 construct: TM4SF5WT (NM-003963, 197 amino acids); expressed in transfected cells; host or cells: SNU449 cells stably expressing STrEP-TM4SF5
T2 sequence (O14894 1-197): T1 sequence (O14894 1-197)
Description: Co-immunoprecipitation: Whole cell extracts were precipitated with anti-FLAG antibody (Cell Signaling Technology) or […]-precoated beads (Sigma-Aldrich) in a cold room overnight prior to immunoblotting with the indicated antibodies. For co-immunoprecipitation of endogenous proteins, whole cell lysates of endogenous TM4SF5-expressing HepG2 cells were precipitated with either anti-TM4SF5 [27] or c-Src (sc-8056, clone H-12) antibody prior to immunoblotting for FAK, c-Src, and TM4SF5. Immunoprecipitated proteins were boiled in 2× SDS-PAGE sample buffer before undergoing western blotting using standard protocols. Quantification of band intensity was performed as described above.
(A and B) SNU449 cells transiently transfected with the c-Src SH321 construct together with the indicated constructs were harvested (A). SNU761 cells stably expressing mock or FLAG-TM4SF5 were transiently transfected with the indicated constructs were harvested (B). The whole cell lysates (WCL) were precipitated with streptavidin beads, prior to immunoblotting. […] Quantitative comparison ratios were calculated from the blots by measurement of band intensities using Image J and normalization of them to those of loading controls. […]

TM4SF5 = target: T3, TM4SF5 (Homo sapiens, UniProt O14894); test: Immunofluorescence of TM4SF5 localization after TSAHC; conditions: TM4SF5-Flag cells, TSAHC 20 μM for 24 h, Figure 3E
T3 construct: TM4SF5WT (NM-003963, 197 amino acids); expressed in transfected cells
T3 sequence (O14894 1-197): T1 sequence (O14894 1-197)
Description: Indirect immunofluorescence: Cells maintained under normal culture conditions on glass coverslips were treated with peptides for 1 day in the absence or presence of 10 μM TSAHC, a specific TM4SF5 inhibitor [29]. The cells were incubated with either PBS (non-permeabilized) or 0.5% Triton X-100 in PBS (permeabilized) for 5 min at RT and then stained using an antibody against TAT (1:100 dilution, Cell Applications, Inc., San Diego, CA, USA). Cells treated with the CPPs were also fixed with 4% formaldehyde for 10 min at RT, incubated with 30 mM glycine for 30 min, permeabilized as described above, and then stained with antibodies against pY397FAK (Cat #: 611723, BD Transduction Laboratories, 1:500 dilution) or pY861FAK (sc-16663-R, Santa Cruz Biotechnology, 1:500 dilution). Phalloidin was also used to stain for F-actin. Immunofluorescent images were acquired on a confocal (Nikon eclipse Ti; Nikon, Melville, NY, USA) or a fluorescent microscope (BX51, Olympus, Japan).
(A and B) SNU449 cells transiently transfected with the c-Src SH321 construct together with the indicated constructs were harvested (A). […] Quantitative comparison ratios were calculated from the blots by measurement of band intensities using Image J and normalization of them to those of loading controls. […]

TM4SF5 binding to c-Src (TM4SF5 binding to c-Src): impaired TM4SF5 binding to c-Src
PTP1B binding to TM4SF5 (PTP1B binding to TM4SF5): reduced substantially
SMILES: Cc1ccc(S(=O)(=O)Nc2ccc(C(=O)C=Cc3ccc(O)cc3)cc2)cc1 [TSAHC, 4-(p-toluenesulfonylamido)-4-hydroxychalcone]
membrane localization of TM4SF5 (TM4SF5): still showed membrane localization of TM4SF5
